Source: PubChem BioAssay AID2060499 (Molecular Pharmacology Branch, DTP, NCI, 2025)
pIC50: −log10 of the molar value.

System: 777334-354-R2-J4-PDC tumor spheroids with HUVEC/MSC, viability
Test: Anticancer human tumor 777334-354-R2-J4-PDC patient-derived pancreatic adenocarcinoma cell line growth inhibition [GQUAD]
Conditions: for pIC50: curve of first compound; for viability, T/C: stronger effect = lower value
Outline: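 Viability of tumor cells grown as complex spheroids with endothelial and stromal cells, exposed to drug combinations. Top concentration at or near clinical Cmax (else 10 microM), diluted in half-log increments.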

[1] = second compound 0.0316 µM, first compound 0.0316 µM
[2] = second compound 0.0316 µM, first compound 0.1 µM
[3] = second compound 0.0316 µM, first compound 0.316 µM
[4] = second compound 0.0316 µM, first compound 1 µM
[5] = second compound 0.0316 µM, first compound 3.16 µM
[6] = second compound 0.0316 µM, first compound 10 µM
[7] = second compound 0.1 µM, first compound 0.0316 µM
[8] = second compound 0.1 µM, first compound 0.1 µM
[9] = second compound 0.1 µM, first compound 0.316 µM
[10] = second compound 0.1 µM, first compound 1 µM
[11] = second compound 0.1 µM, first compound 3.16 µM
[12] = second compound 0.1 µM, first compound 10 µM
[13] = second compound 0.316 µM, first compound 0.0316 µM
[14] = second compound 0.316 µM, first compound 0.1 µM
[15] = second compound 0.316 µM, first compound 0.316 µM
[16] = second compound 0.316 µM, first compound 1 µM
[17] = second compound 0.316 µM, first compound 3.16 µM
[18] = second compound 0.316 µM, first compound 10 µM
[19] = second compound 1 µM, first compound 0.0316 µM
[20] = second compound 1 µM, first compound 0.1 µM
[21] = second compound 1 µM, first compound 0.316 µM
[22] = second compound 1 µM, first compound 1 µM
[23] = second compound 1 µM, first compound 3.16 µM
[24] = second compound 1 µM, first compound 10 µM
[25] = second compound 3.16 µM, first compound 0.0316 µM
[26] = second compound 3.16 µM, first compound 0.1 µM
[27] = second compound 3.16 µM, first compound 0.316 µM
[28] = second compound 3.16 µM, first compound 1 µM
[29] = second compound 3.16 µM, first compound 3.16 µM
[30] = second compound 3.16 µM, first compound 10 µM
[31] = second compound 10 µM, first compound 0.0316 µM
[32] = second compound 10 µM, first compound 0.1 µM
[33] = second compound 10 µM, first compound 0.316 µM
[34] = second compound 10 µM, first compound 1 µM
[35] = second compound 10 µM, first compound 3.16 µM
[36] = second compound 10 µM, first compound 10 µM
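Note: spheroids exposed to compounds for 7 days before readout.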

Question: `Nc1ccn(C2OC(CO)C(O)C2(F)F)c(=O)n1` (centres undefined) + Cc1cnc(CNC(=O)c2c(=O)c3ccc(N4CCCN(C)CC4)nc3n3c2sc2ccccc23)cn1 was tested. Which pIC50 (second compound 0.0316 µM) did it give?
Answer: The pIC50 was 6.01.

Question: What about the pIC50 (second compound 0.1 µM) of the same compound?
Answer: Its pIC50 is 6.17.

Question: What about the pIC50 (second compound 0.316 µM) of the same compound?
Answer: The pIC50 was 5.92.

Question: And the pIC50 (second compound 1 µM)?
Answer: The pIC50 was 6.48.

Question: And the pIC50 (second compound 3.16 µM)?
Answer: The pIC50 was 6.30.

Question: What about the pIC50 (second compound 10 µM) of the same compound?
Answer: The pIC50 was 6.74.

Question: What about the viability, T/C [1] of the same compound?
Answer: The viability, T/C was 81.2%.

Question: And the viability, T/C [2]?
Answer: The viability, T/C was 61.2%.

Question: What about the viability, T/C [3] of the same compound?
Answer: Its viability, T/C is 69.1%.

Question: What about the viability, T/C [4] of the same compound?
Answer: Its viability, T/C is 46.3%.

Question: What about the viability, T/C [5] of the same compound?
Answer: The viability, T/C was 39.1%.

Question: And the viability, T/C [6]?
Answer: The viability, T/C was 31.6%.

Question: What about the viability, T/C [7] of the same compound?
Answer: Its viability, T/C is 85.4%.

Question: What about the viability, T/C [8] of the same compound?
Answer: Its viability, T/C is 64.5%.

Question: What about the viability, T/C [9] of the same compound?
Answer: The viability, T/C was 60.8%.

Question: What about the viability, T/C [10] of the same compound?
Answer: The viability, T/C was 45.7%.

Question: And the viability, T/C [11]?
Answer: Its viability, T/C is 37.5%.

Question: What about the viability, T/C [12] of the same compound?
Answer: Its viability, T/C is 32.7%.

Question: And the viability, T/C [13]?
Answer: Its viability, T/C is 81.5%.

Question: And the viability, T/C [14]?
Answer: Its viability, T/C is 72.5%.

Question: What about the viability, T/C [15] of the same compound?
Answer: Its viability, T/C is 55.5%.

Question: And the viability, T/C [16]?
Answer: The viability, T/C was 51.7%.

Question: What about the viability, T/C [17] of the same compound?
Answer: Its viability, T/C is 47.8%.

Question: What about the viability, T/C [18] of the same compound?
Answer: The viability, T/C was 31.6%.

Question: What about the viability, T/C [19] of the same compound?
Answer: Its viability, T/C is 67.9%.

Question: And the viability, T/C [20]?
Answer: Its viability, T/C is 58.2%.

Question: What about the viability, T/C [21] of the same compound?
Answer: Its viability, T/C is 46.4%.

Question: What about the viability, T/C [22] of the same compound?
Answer: The viability, T/C was 45.2%.

Question: And the viability, T/C [23]?
Answer: The viability, T/C was 41.1%.

Question: And the viability, T/C [24]?
Answer: The viability, T/C was 30.2%.

Question: And the viability, T/C [25]?
Answer: Its viability, T/C is 61.1%.

Question: What about the viability, T/C [26] of the same compound?
Answer: Its viability, T/C is 64%.

Question: And the viability, T/C [27]?
Answer: Its viability, T/C is 48.4%.

Question: And the viability, T/C [28]?
Answer: Its viability, T/C is 43.9%.

Question: What about the viability, T/C [29] of the same compound?
Answer: Its viability, T/C is 43.6%.

Question: What about the viability, T/C [30] of the same compound?
Answer: The viability, T/C was 30.5%.

Question: What about the viability, T/C [31] of the same compound?
Answer: The viability, T/C was 57.3%.

Question: What about the viability, T/C [32] of the same compound?
Answer: The viability, T/C was 48.3%.

Question: And the viability, T/C [33]?
Answer: Its viability, T/C is 48.7%.

Question: And the viability, T/C [34]?
Answer: The viability, T/C was 40.4%.

Question: And the viability, T/C [35]?
Answer: The viability, T/C was 41.6%.

Question: What about the viability, T/C [36] of the same compound?
Answer: Its viability, T/C is 27%.

Question: With `O=c1[nH]cc(F)c(=O)[nH]1` + Cc1cnc(CNC(=O)c2c(=O)c3ccc(N4CCCN(C)CC4)nc3n3c2sc2ccccc23)cn1 as the compound, how does the pIC50 (second compound 0.0316 µM) read?
Answer: Its pIC50 is under 5.00.

Question: What about the pIC50 (second compound 0.1 µM) of the same compound?
Answer: The pIC50 was under 5.00.

Question: And the pIC50 (second compound 0.316 µM)?
Answer: The pIC50 was under 5.00.

Question: And the pIC50 (second compound 1 µM)?
Answer: The pIC50 was under 5.00.

Question: And the pIC50 (second compound 3.16 µM)?
Answer: The pIC50 was under 5.00.

Question: What about the pIC50 (second compound 10 µM) of the same compound?
Answer: Its pIC50 is under 5.00.

Question: What about the viability, T/C [1] of the same compound?
Answer: Its viability, T/C is 97.7%.

Question: What about the viability, T/C [2] of the same compound?
Answer: The viability, T/C was 94.8%.

Question: What about the viability, T/C [3] of the same compound?
Answer: The viability, T/C was 91.9%.

Question: And the viability, T/C [4]?
Answer: Its viability, T/C is 87.9%.

Question: And the viability, T/C [5]?
Answer: The viability, T/C was 69.5%.

Question: And the viability, T/C [6]?
Answer: The viability, T/C was 64.5%.

Question: What about the viability, T/C [7] of the same compound?
Answer: Its viability, T/C is 82.4%.

Question: What about the viability, T/C [8] of the same compound?
Answer: Its viability, T/C is 84.8%.

Question: And the viability, T/C [9]?
Answer: Its viability, T/C is 89%.

Question: And the viability, T/C [10]?
Answer: The viability, T/C was 80.1%.

Question: What about the viability, T/C [11] of the same compound?
Answer: Its viability, T/C is 82%.

Question: What about the viability, T/C [12] of the same compound?
Answer: Its viability, T/C is 68.3%.

Question: What about the viability, T/C [13] of the same compound?
Answer: Its viability, T/C is 85.3%.

Question: What about the viability, T/C [14] of the same compound?
Answer: Its viability, T/C is 82.8%.

Question: And the viability, T/C [15]?
Answer: The viability, T/C was 73.8%.

Question: And the viability, T/C [16]?
Answer: The viability, T/C was 75.8%.

Question: And the viability, T/C [17]?
Answer: Its viability, T/C is 74.7%.

Question: And the viability, T/C [18]?
Answer: Its viability, T/C is 66.5%.

Question: What about the viability, T/C [19] of the same compound?
Answer: The viability, T/C was 71.3%.

Question: And the viability, T/C [20]?
Answer: The viability, T/C was 66.8%.

Question: What about the viability, T/C [21] of the same compound?
Answer: The viability, T/C was 68%.

Question: And the viability, T/C [22]?
Answer: Its viability, T/C is 67.7%.

Question: What about the viability, T/C [23] of the same compound?
Answer: The viability, T/C was 73.2%.

Question: What about the viability, T/C [24] of the same compound?
Answer: Its viability, T/C is 65.7%.

Question: What about the viability, T/C [25] of the same compound?
Answer: The viability, T/C was 59.4%.

Question: And the viability, T/C [26]?
Answer: The viability, T/C was 73.2%.

Question: And the viability, T/C [27]?
Answer: The viability, T/C was 67.3%.

Question: What about the viability, T/C [28] of the same compound?
Answer: Its viability, T/C is 61.6%.

Question: And the viability, T/C [29]?
Answer: Its viability, T/C is 68.8%.

Question: And the viability, T/C [30]?
Answer: Its viability, T/C is 56%.

Question: And the viability, T/C [31]?
Answer: The viability, T/C was 57.7%.

Question: What about the viability, T/C [32] of the same compound?
Answer: Its viability, T/C is 61.9%.

Question: And the viability, T/C [33]?
Answer: Its viability, T/C is 59%.

Question: What about the viability, T/C [34] of the same compound?
Answer: The viability, T/C was 59.7%.

Question: And the viability, T/C [35]?
Answer: The viability, T/C was 50.8%.

Question: What about the viability, T/C [36] of the same compound?
Answer: The viability, T/C was 51.8%.
